Results reported in patent publication US5877026A, “Analgesic peptides from venom of Grammostola spatulata and use thereof” (priority 1998, dated 1999).
Where no end group is shown, it is not given here.

Experiments:
Assay type in all cases: in vivo, rat
Sprague-Dawley rats [1] = test: von Frey filament threshold
Description: In this test filaments of increasing thickness are applied to the dorsal surface of a hindlimb until the rat either voluntarily removes the appendage with a forcible escape movement or vocalizes. The thickness of the filaments are arbitrarily labelled with a value which can be transformed into a grams force reading according to the following equation: [formula] Data are expressed either as absolute gram force values or a percentage of the maximum possible effect (MPE) as described in the following equation: [formula]

Sprague-Dawley rats [2] = test: Tail flick latency
Description: This test measures the time interval required for a rat to withdraw its tail, via a spinally mediated reflex mechanism, from a high intensity light source (IITC Inc./Life Sciences Instruments, Woodland Hills, Calif. 91367) focally applied to the dorsal surface of the appendage. The intensity of the light beam has been experimentally defined such that naive animals will withdraw their tails within 2 to 4 seconds. A maximum cut off time for the light source has been set at ten seconds to reduce the amount of secondary tissue damage.
Data is expressed either as absolute time or a percentage of the maximal possible effect (MPE) which is described by the following equation where 10 seconds is the maximum: [formula] (Latency refers to the amount of time before the animal removed its appendage from the light source.)
(§1) With minimal restraint, peptide GsAF I was injected intrathecally (i.th.) into young (75-150 gram) male Sprague-Dawley rats (Charles Rivers Laboratories, Wilmington, Mass. 01887). I.th. injections were made into the spinal subarachnoid space between lumbar spinous processes L4 and L5 using 10 microliter Hamilton syringes equipped with 3/8 inch by 28G needles. Dosing levels were based upon concentrations deduced from ultraviolet absorbance values at 280 nm using an extinction coefficient of 18710. Injection volume was 10 microliters. The injection vehicle was saline or 0.1% bovine serum albumin(BSA)/saline. The rats were pretreated with GsAF I 30 minutes prior to exposure to the light source.
as §1, with “GsAF II” for “GsAF I”, “Wilmington, Mass.))” for “Wilmington, Mass. 01887). I.th. injections were made”, “using the deduced molar” for “using an”, “of 24310.” for “of 18710.”, “GsAF II 15” for “GsAF I 30”

Sprague-Dawley rats [3] = test: Formalin pain test; conditions: for Acute Flinches, % control / Acute Flinches, absolute level: 0-5 minutes post formalin; for Tonic Flinches, % control / Tonic Flinches, absolute level / Tonic Licking, % control / Tonic Licking, absolute level: 20-35 minutes post formalin
Experimental: The noxious stimulus for this test is the sub-cutaneous injection of a 5% solution of formalin into the dorsal surface of one of the hindlimbs of the animal. Motor activity indices used in this test are 1) the total time spent licking that appendage and 2) the total number of flinching/shaking responses of the affected appendage. Data collection is initiated immediately upon injection of the formalin solution into the limb. The acute phase response is defined by the time interval of 0-5 minutes post formalin injection. The tonic phase response is defined by the interval of 20-35 minutes post formalin injection Data collection is done in a computerized format. Expression of the data is done using either absolute values or as percent control which is defined by the level of response following injection of saline vehicle.
as §1, with “Mass.)” for “Mass. 01887). I.th. injections were made”, “injection with” for “exposure to”, “formalin solution.” for “light source.”
With minimal restraint, peptide GsAF II was injected intrathecally (i.th.) into young (75-150 gram) male Sprague-Dawley rats (Charles Rivers Laboratories, Wilmington, Mass.) into the spinal subarachnoid space between lumbar spinous processes L4 and L5 using 10 microliter Hamilton syringes equipped with 3/8 inch by 28G needles. Dosing levels were based upon concentrations deduced from ultraviolet absorbance values at 280 nm as stated previously. Based upon a mass of 3980 Da, 583 pmoles corresponds to 2.3 micrograms of GsAF II, and 2.33 nmoles corresponds to 9.3 micrograms of GsAF II. Injection volume was 10 microliters. The injection vehicle was saline or 0.1 % bovine serum albumin(BSA)/saline. The rats were pretreated with GsAF II 15 minutes prior to injection with formalin.
In addition to the above analyses, 180 pmoles (666 nanograms) of GsAF I was administered 5 minutes after injection of 5% formalin and the tonic phase responses were recorded as described previously. The highly efficacious activity of GsAF I was retained. Tonic flinch response was inhibited 86% (i.e. 14% of control) and tonic lick duration was reduced 91 % (i.e. 9% of control). This property has only been reported for strong analgesic compounds that interact with μ-opioid receptors.

[4] = 1.8 pmoles i.th., 30 minutes pretreatment
[5] = 18 pmoles i.th., 30 minutes pretreatment
[6] = 180 pmoles (666 nanograms) administered 5 minutes after injection of 5% formalin
[7] = 180 pmoles i.th., 30 minutes pretreatment
[8] = 583 picomoles (2.33 micrograms) i.th., 15 minutes pretreatment
[9] = 583 pmoles i.th., 15 minutes pretreatment
[10] = 2.33 nmoles i.th., 15 minutes pretreatment

Substance: Tyr-Cys-Gln-Lys-Trp-Leu-Trp-Thr-Cys-Asp-Ser-Glu-Arg-Lys-Cys-Cys-Glu-Asp-Met-Val-Cys-Arg-Leu-Trp-Cys-Lys-Lys-Arg-Leu-NH2 (YCQKWLWTCDSERKCCEDMVCRLWCKKRL-NH2; cysteine pairing not given here) [GsAF I]
- MPE, von Frey threshold (Sprague-Dawley rats [1]; 18 picomole (6.6 nanograms), one hour pretreatment): 22 % MPE
- MPE, von Frey threshold (Sprague-Dawley rats [1]; 18 picomoles (66 nanograms), 30 minutes post injection): 24 % MPE
- confounding side effects (Sprague-Dawley rats [1]; 180 and 18 picomoles): No confounding side effects were present
- MPE, von Frey threshold (Sprague-Dawley rats [1]; 180 picomole, one hour pretreatment): 100 % MPE
- MPE, von Frey threshold (Sprague-Dawley rats [1]; 180 picomoles (666 nanograms), 30 minutes post injection): 93 % MPE
- activity in tail flick latency (Sprague-Dawley rats [2]; 1.8 picomoles (6.6 nanograms) i.th., 30 minutes pretreatment): inactive
- MPE, tail flick latency (Sprague-Dawley rats [2]; 18 picomoles (66 nanograms) i.th., 30 minutes pretreatment): 29 % MPE
- MPE, tail flick latency (Sprague-Dawley rats [2]; 180 picomoles (666 nanograms) i.th., 30 minutes pretreatment): 95 % MPE
- inhibition of the tail flick response (latency value greater than 10 seconds) (Sprague-Dawley rats [2]; 180 picomoles (666 nanograms) i.th., in most rats): Complete inhibition
- confounding side effects (motor disturbances, limb impairment/paralysis, righting reflex, sedation) (Sprague-Dawley rats [2]; 180 picomoles i.th.): either minimal or not present
- pretreatment time with maximal activity (Sprague-Dawley rats [2]; i.th., tail flick): 30 min
- Acute Flinches, % control (Sprague-Dawley rats [3]; [4]): 28%
- Acute Flinches, absolute level (Sprague-Dawley rats [3]; [4]): 12
- Tonic Flinches, % control (Sprague-Dawley rats [3]; [4]): 32%
- Tonic Flinches, absolute level (Sprague-Dawley rats [3]; [4]): 44.3
- Tonic Licking, % control (Sprague-Dawley rats [3]; [4]): 46%
- Tonic Licking, absolute level (Sprague-Dawley rats [3]; [4]): 84.3 s
- Acute Flinches, % control (Sprague-Dawley rats [3]; [5]): 20%
- Acute Flinches, absolute level (Sprague-Dawley rats [3]; [5]): 8.5
- Tonic Flinches, % control (Sprague-Dawley rats [3]; [5]): 21%
- Tonic Flinches, absolute level (Sprague-Dawley rats [3]; [5]): 29.5
- Tonic Licking, % control (Sprague-Dawley rats [3]; [5]): 8.4%
- Tonic Licking, absolute level (Sprague-Dawley rats [3]; [5]): 15.3 s
- Tonic flinch response, % of control (Sprague-Dawley rats [3]; [6]): 14 % of control
- Tonic flinch response, inhibition (Sprague-Dawley rats [3]; [6]): 86%
- tonic lick duration, % of control (Sprague-Dawley rats [3]; [6]): 9 % of control
- tonic lick duration, reduction (Sprague-Dawley rats [3]; [6]): 91%
- Acute Flinches, % control (Sprague-Dawley rats [3]; [7]): 8.9%
- Acute Flinches, absolute level (Sprague-Dawley rats [3]; [7]): 3.8
- Tonic Flinches, % control (Sprague-Dawley rats [3]; [7]): 3.0%
- Tonic Flinches, absolute level (Sprague-Dawley rats [3]; [7]): 4.3
- Tonic Licking, % control (Sprague-Dawley rats [3]; [7]): 0%
- Tonic Licking, absolute level (Sprague-Dawley rats [3]; [7]): 0 s

Substance: YCQKWMWTCDEERKCCEGLVCRLWCKKKIEW (cysteine pairing not given here) [GsAF II]
- MPE, von Frey threshold (Sprague-Dawley rats [1]; 2.33 nanomole (9.27 micrograms), 30 minutes post injection): 83%
- rats demonstrating maximal analgesic activity (100% MPE), von Frey (Sprague-Dawley rats [1]; 2.33 nanomole (higher dose), 30 minutes post injection): 75%
- MPE, von Frey threshold (Sprague-Dawley rats [1]; 583 picomole (2.32 micrograms), 30 minutes post injection): 48%
- inhibition of the tail flick response (latency greater than ten seconds) (Sprague-Dawley rats [2]; 2.33 nanomoles (9.27 micrograms) i.th., 15 minutes pretreatment, all animals (n=8)): Complete inhibition
- confounding side effects (Sprague-Dawley rats [2]; 2.33 nanomoles and 583 picomoles i.th.): no confounding side effects were detected
- animals with 100% MPE, tail flick (Sprague-Dawley rats [2]; [8]): five of six
- average MPE, tail flick latency (Sprague-Dawley rats [2]; [8]): 92%
- Acute Flinches, % control (Sprague-Dawley rats [3]; [9]): 41%
- Acute Flinches, absolute level (Sprague-Dawley rats [3]; [9]): 6.8
- Tonic Flinches, % control (Sprague-Dawley rats [3]; [9]): 9.5%
- Tonic Flinches, absolute level (Sprague-Dawley rats [3]; [9]): 8.2
- Tonic Licking, % control (Sprague-Dawley rats [3]; [9]): 8.2%
- Tonic Licking, absolute level (Sprague-Dawley rats [3]; [9]): 7.8 s
- Acute Flinches, % control (Sprague-Dawley rats [3]; [10]): 19%
- Acute Flinches, absolute level (Sprague-Dawley rats [3]; [10]): 3.25
- Tonic Flinches, % control (Sprague-Dawley rats [3]; [10]): 1.4%
- Tonic Flinches, absolute level (Sprague-Dawley rats [3]; [10]): 1.2
- Tonic Licking, % control (Sprague-Dawley rats [3]; [10]): 0%
- Tonic Licking, absolute level (Sprague-Dawley rats [3]; [10]): 0 s
